For one test, the target named is human BCL6 BTB domain (Homo sapiens, UniProt P41182). In words: BCL6 TR-FRET assay. It counts as binding. As to conditions: for IC90: read-out: BCL6 TR-FRET IC90 Geometric Mean. The protocol: 1. Supplementary experimental: protein production, purification and crystallography 1.1 BCL6 constructs used for assays and crystallography […]
cleavage site. For the TR-FRET assay, the Trx-6His-HRV3C-BCL6 protein construct was used without cleaving the tag, as a 6His was needed to bind to the anti-6His-Terbium antibody. […]
For both plasmid constructs described above, transformed BL21-AI E. coli cells were grown in LB media […]
Expression was carried out at 18 °C for 18 hours. Cells were harvested by centrifugation (5500 g for 30 minutes at 4 °C) and stored at -80 °C.
Cells were re-suspended in a buffer composed of 20 mM Tris pH 8, 250 mM NaCl, 1 mM MgCl2, 0.5 mM […]
lysed by sonication followed by centrifugation at 21,000 g for 45 minutes at 4 °C. […]
ResourceQ and gel filtration using a HiLoad 26/60 Superdex75 column in a buffer containing 20 mM HEPES […]
The final protein was assessed for purity and molar mass by SDS-PAGE and high-resolution mass spectrometry, respectively.
For the uncleaved Trx-6His-HRV3C-BCL6 protein construct to be used in TR-FRET, the protein was directly eluted from the HisTrap FF column without HRV-3C treatment, and submitted to Superdex75 gel filtration […]
Test compounds in DMSO or DMSO alone […]
concentration in 0.7% v/v DMSO final. […]

Test [1] has as its target T1, BCL6-SMRT (NCOR2) corepressor protein-protein interaction (Homo sapiens, UniProt P41182).
T1 construct: DNA encoding full length BCL6 and SMRT; expressed in transfected cells; host or cells: HEK293T
In words: NanoBRET cellular assay (HEK293T). It counts as cell-based. The protocol:
Test compounds in DMSO or DMSO alone
concentration in 0.7% v/v DMSO final.
(also called NCOR2) corepressor protein-protein interaction. DNA encoding full length BCL6 and SMRT
fusion proteins BCL6-nanoLuc and SMRT-HaloTag, respectively. HEK293T cells were plated […] in T75
At the time of assay, compounds
dispensing (Labcyte Inc.). Frozen transfected HEK293T cells were thawed, centrifuged and freezing
DMSO final concentration.
After a short centrifugation the
(1st emission filter) / 450-80 nm (2nd emission filter). The % inhibition at each test concentration was
sigmoidal four-parameter logistic fit equation. […]

[2] abbreviates: Table S1, read-out: BCL6 TR-FRET pIC50 mean (converted).
Where [3] appears, read: geometric mean of at least three replicates, read-out: BCL6 TR-FRET IC50.
Setting [4] is: HEK-293T, Table S2, read-out: BCL6 NanoBRET IC90 individual replicates.
[5] abbreviates: geometric mean of at least three replicates, read-out: NanoBRET IC50.
Where [6] appears, read: single replicates, Table S2, read-out: BCL6 NanoBRET IC50 individual replicates.
The mark [7] stands for this setting: supplement, read-out: BCL6 NanoBRET IC50 Geometric Mean.
The mark [8] stands for this setting: Table S2, read-out: BCL6 NanoBRET pIC50 mean (converted).
Where [9] appears, read: supplement, read-out: BCL6 TR-FRET IC50 Geometric Mean.
The mark [10] stands for this setting: HEK-293T, geometric mean of at least three replicates, read-out: NanoBRET IC90.
The mark [11] stands for this setting: HEK-293T, Table S2, several values per compound, read-out: BCL6 NanoBRET IC90 Geometric Mean.
Where [12] appears, read: Table S2, several values per compound, read-out: BCL6 NanoBRET IC90 Geometric Mean.

Where “and” joins values, the source holds several entries; their conditions need not be identical. Equal values may be shown once. Read-outs that look alike come from different tables or passages of the source.

The values below come from PMC10150366, “Discovery of an In Vivo Chemical Probe for BCL6 Inhibition by Optimization of Tricyclic Quinolinones” (Journal of Medicinal Chemistry, 2023).

A word on the IC90: it is the concentration at which the effect reaches the 90% level. Take `Cn1c(=O)c2c(c3cc(Nc4nc(N5C6COCC5CC(O)C6)ncc4Cl)ccc31)N[C@@H](C1CC1)C(F)(F)CO2` (stereo partly drawn) [compound 8, (S)-10-((5-Chloro-2-((1R,5S,7R)-7-hydroxy-3-oxa-9-azabicyclo[3.3.1]-nonan-9-yl)pyrimidin-4-yl)amino)-2-cyclopropyl-3,3-difluoro-7-methyl-1,2,3,4-tetrahydro-[1,4]oxazepino[2,3-c]quinolin-6(7H)-one]: the IC90 at human BCL6 BTB domain (Table S1) came out at 7.6 nM. The IC50 at human BCL6 BTB domain (setting [2]) is 1.31 nM; on human BCL6 BTB domain (setting [3]), 1.3 nM.

`Cn1c(=O)c2c(c3cc(Nc4nc(N5CCC5)ncc4Cl)ccc31)N[C@@H](C1CC1)C(F)(F)CO2` [compound 9, (S)-10-((2-(Azetidin-1-yl)-5-chloropyrimidin-4-yl)amino)-2-cyclopropyl-3,3-difluoro-7-methyl-1,2,3,4-tetrahydro-[1,4]oxazepino[2,3-c]quinolin-6(7H)-one]: on human BCL6 BTB domain (Table S1), the “BCL6 TR-FRET pIC50 mean” value worked out at 8.2581. Besides, the IC90 at human BCL6 BTB domain (Table S1) was determined as 45.4 nM; in test [1] (setting [4]), 1620 nM. The IC50 was 5.5 nM at human BCL6 BTB domain (setting [3]); 149 nM in test [1] (setting [5]); 229 nM and 48.1 nM and 302 nM in test [1] (setting [6]); 149 nM in test [1] (setting [7]). Moreover, the “BCL6 NanoBRET pIC50 mean” value in test [1] (Table S2) was 6.8258.

Consider `Cn1c(=O)c2c(c3cc(Nc4nc(N5CC(F)C5)ncc4Cl)ccc31)N[C@@H](C1CC1)C(F)(F)CO2` [compound 13, (S)-10-((5-Chloro-2-(3-fluoroazetidin-1-yl)pyrimidin-4-yl)amino)-2-cyclopropyl-3,3-difluoro-7-methyl-1,2,3,4-tetrahydro-[1,4]oxazepino[2,3-c]quinolin-6(7H)-one], for which the figures for the IC90 (at human BCL6 BTB domain (Table S1); in test [1] (setting [4])) were 50.2 nM and 444 nM, respectively. Moreover, the IC50 is 6.2 nM on human BCL6 BTB domain (setting [2]); 5.7 nM at human BCL6 BTB domain (setting [3]); 52 nM in test [1] (setting [8]); 40 nM in test [1] (setting [5]); 56.7 nM and 28.4 nM and 87.3 nM in test [1] (setting [6]).

As for `Cn1c(=O)c2c(c3cc(Nc4nc(N5CC(F)(F)C5)ncc4Cl)ccc31)N[C@@H](C1CC1)C(F)(F)CO2` [compound 11, (S)-10-((5-Chloro-2-(3,3-difluoroazetidin-1-yl)pyrimidin-4-yl)amino)-2-cyclopropyl-3,3-difluoro-7-methyl-1,2,3,4-tetrahydro-[1,4]oxazepino[2,3-c]quinolin-6(7H)-one], the IC90 is 85.4 nM on human BCL6 BTB domain (Table S1), 175 nM in test [1] (setting [4]) and 175 nM in test [1] (setting [10]). Moreover, the IC50 at human BCL6 BTB domain (setting [3]) was 10 nM; at human BCL6 BTB domain (setting [9]), 10.3 nM; in test [1] (setting [5]), 31 nM; in test [1] (setting [6]), 61.1 nM and 18.2 nM and 26.8 nM. Further, the “BCL6 NanoBRET pIC50 mean” value in test [1] (Table S2) was determined as 7.5086.

As to `Cn1c(=O)c2c(c3cc(Nc4ccnc(Cl)c4C#N)ccc31)N[C@@H](C1CC1)C(F)(F)CO2` [compound 14], the IC90 stood at 30.1 nM on human BCL6 BTB domain (Table S1) and 124 nM in test [1] (setting [4]). For the same molecule, the IC50 was 3.95 nM on human BCL6 BTB domain (setting [2]); 4.8 nM at human BCL6 BTB domain (setting [3]); 14.7 nM and 10.4 nM (2×) in test [1] (setting [6]); 11.7 nM in test [1] (setting [7]). For the same molecule, in test [1] (Table S2), the “BCL6 NanoBRET pIC50 mean” value was determined as 7.9327.

Turning to `Cn1c(=O)c2c(c3cc(Nc4nc(N5CC(C#N)C5)ncc4Cl)ccc31)N[C@@H](C1CC1)C(F)(F)CO2` [compound 12, (S)-1-(5-Chloro-4-((2-cyclopropyl-3,3-difluoro-7-methyl-6-oxo-1,2,3,4,6,7-hexahydro-[1,4]oxazepino[2,3-c]quinolin-10-yl)amino)pyrimidin-2-yl)azetidine-3-carbonitrile], the “BCL6 TR-FRET pIC50 mean” value at human BCL6 BTB domain (Table S1) was determined as 8.3025. Besides, the IC90 at human BCL6 BTB domain (Table S1) is 46.6 nM; in test [1] (setting [11]), 532 nM; in test [1] (setting [4]) it was 385 nM; in test [1] (setting [12]), 398 nM and 270 nM. For the same molecule, the IC50 on human BCL6 BTB domain (setting [3]) was 5 nM; in test [1] (setting [5]), 55 nM; in test [1] (setting [6]), 73.6 nM and 63.9 nM and 34.7 nM; in test [1] (setting [7]), 54.7 nM. The “BCL6 NanoBRET pIC50 mean” value in test [1] (Table S2) is listed as 7.2623.

As for `Cn1c(=O)c2c(c3cc(Nc4nc(N5C6CCC5COC6)ncc4Cl)ccc31)N[C@@H](C1CC1)C(F)(F)CO2` [compound 4, (S)-10-((2-(3-Oxa-8-azabicyclo[3.2.1]octan-8-yl)-5-chloropyrimidin-4-yl)amino)-2-cyclopropyl-3,3-difluoro-7-methyl-1,2,3,4-tetrahydro-[1,4]oxazepino[2,3-c]quinolin-6(7H)-one], the IC90 on human BCL6 BTB domain (Table S1) was 10.2 nM; in test [1] (setting [11]), 185 nM; in test [1] (setting [4]), 142 nM; in test [1] (setting [10]), 143 nM; in test [1] (setting [12]), 101 nM and 154 nM. The IC50 on human BCL6 BTB domain (setting [2]) was 1.51 nM; on human BCL6 BTB domain (setting [3]) it was 1.4 nM; in test [1] (setting [5]) it was 10.7 nM and 11 nM; in test [1] (setting [6]) it was 12.3 nM and 8.2 nM and 12.1 nM. Also, the calculated free (unbound) cellular IC90 in test [1] (HEK-293T, calculated free cellular IC90 from NanoBRET assay) is 42 nM. Moreover, the “BCL6 NanoBRET pIC50 mean” value in test [1] (Table S2) is 7.9696.

Take `Cc1nccc(Nc2ccc3c(c2)c2c(c(=O)n3C)OCC(F)(F)[C@H](C3CC3)N2)c1Cl` [compound 16, (S)-10-((3-chloro-2-methylpyridin-4-yl)amino)-2-cyclopropyl-3,3-difluoro-7-methyl-1,2,3,4-tetrahydro-[1,4]oxazepino[2,3-c]quinolin-6(7H)-one]: on human BCL6 BTB domain (Table S1), the “BCL6 TR-FRET pIC50 mean” value is 7.7332. Besides, the IC90 was 158 nM on human BCL6 BTB domain (Table S1), 639 nM in test [1] (setting [11]) and 639 nM in test [1] (setting [4]). The IC50 came out at 18.5 nM at human BCL6 BTB domain (setting [3]), 129 nM in test [1] (setting [6]) and 129 nM in test [1] (setting [7]). Besides, the “BCL6 NanoBRET pIC50 mean” value in test [1] (Table S2) is given as 6.8907.

On to `Cn1c(=O)c2c(c3cc(Nc4ccnc(Cl)c4F)ccc31)N[C@@H](C1CC1)C(F)(F)CO2` [compound 18, (S)-10-((2-chloro-3-fluoropyridin-4-yl)amino)-2-cyclopropyl-3,3-difluoro-7-methyl-1,2,3,4-tetrahydro-[1,4]oxazepino[2,3-c]quinolin-6(7H)-one], for which, at human BCL6 BTB domain (Table S1), the “BCL6 TR-FRET pIC50 mean” value came out at 7.6837. In addition, the IC90 is 201 nM on human BCL6 BTB domain (Table S1); 625 nM in test [1] (setting [11]); 616 nM in test [1] (setting [4]); 511 nM and 732 nM in test [1] (setting [12]). The IC50 is 21 nM at human BCL6 BTB domain (setting [3]); 20.7 nM on human BCL6 BTB domain (setting [9]); 108 nM in test [1] (setting [5]); 99.9 nM and 125 nM and 99.5 nM in test [1] (setting [6]); 108 nM in test [1] (setting [7]). Also, the “BCL6 NanoBRET pIC50 mean” value in test [1] (Table S2) stood at 6.9685.

As for `COC1CN(c2ncc(Cl)c(Nc3ccc4c(c3)c3c(c(=O)n4C)OCC(F)(F)[C@H](C4CC4)N3)n2)C1` [compound 10, (S)-10-((5-Chloro-2-(3-methoxyazetidin-1-yl)pyrimidin-4-yl)amino)-2-cyclopropyl-3,3-difluoro-7-methyl-1,2,3,4-tetrahydro-[1,4]oxazepino[2,3-c]quinolin-6(7H)-one], the IC90 on human BCL6 BTB domain (Table S1) was determined as 34.1 nM; in test [1] (setting [4]), 386 nM. Besides, the IC50 at human BCL6 BTB domain (setting [2]) is 3.93 nM; at human BCL6 BTB domain (setting [3]) it was 3.7 nM; in test [1] (setting [8]), 43.6 nM; in test [1] (setting [5]), 38 nM; in test [1] (setting [6]), 26 nM and 57.5 nM and 55.3 nM.

`Cn1c(=O)c2c(c3cc(Nc4nc(N5CC6CCC(C5)O6)ncc4Cl)ccc31)N[C@@H](C1CC1)C(F)(F)CO2` [compound 5, (S)-10-((2-(8-Oxa-3-azabicyclo[3.2.1]octan-3-yl)-5-chloropyrimidin-4-yl)amino)-2-cyclopropyl-3,3-difluoro-7-methyl-1,2,3,4-tetrahydro-[1,4]oxazepino[2,3-c]quinolin-6(7H)-one]: the “BCL6 TR-FRET pIC50 mean” value on human BCL6 BTB domain (Table S1) amounted to 8.527. Also, the IC90 at human BCL6 BTB domain (Table S1) was determined as 19.9 nM; in test [1] (setting [4]), 98.7 nM. Also, the IC50 is 3 nM on human BCL6 BTB domain (setting [3]); 12.5 nM in test [1] (setting [5]); 9.6 nM and 14.7 nM and 14 nM in test [1] (setting [6]). The “BCL6 NanoBRET pIC50 mean” value in test [1] (Table S2) turned out to be 7.9026.
